# Measured values published in patent publication EP4471048A1, “PEPTIDE INHIBITORS OF INTERLEUKIN-23 RECEPTOR” (Zealand Pharma A/S, priority 2023, dated 2024).
# Experiments:
# [1] = Peptide stability in simulated intestinal fluid (SIF); type: in vitro ADME; conditions: 37 °C, porcine pancreatin
# How it was run: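 Peptides were incubated at 37 °C with gentle shaking in pH 6.8 potassium phosphate SIF containing porcine pancreatin (10 g/L). Supernatants were analysed by LC-HRMS. Percent remaining at each timepoint, including 4 h, was calculated relative to time zero from absolute peak areas.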
# [2] = molecular target: IL-23 mediated signalling (Homo sapiens, UniProt Q5VWK5); test: Functional inhibition of IL-23 mediated STAT3 signalling (phospho-STAT3 MSD) in DB cells; type: cell-based; conditions: DB cells, hIL-23 at EC80
# Sequence of IL-23 mediated signalling (Q5VWK5 24-629 limits assumed): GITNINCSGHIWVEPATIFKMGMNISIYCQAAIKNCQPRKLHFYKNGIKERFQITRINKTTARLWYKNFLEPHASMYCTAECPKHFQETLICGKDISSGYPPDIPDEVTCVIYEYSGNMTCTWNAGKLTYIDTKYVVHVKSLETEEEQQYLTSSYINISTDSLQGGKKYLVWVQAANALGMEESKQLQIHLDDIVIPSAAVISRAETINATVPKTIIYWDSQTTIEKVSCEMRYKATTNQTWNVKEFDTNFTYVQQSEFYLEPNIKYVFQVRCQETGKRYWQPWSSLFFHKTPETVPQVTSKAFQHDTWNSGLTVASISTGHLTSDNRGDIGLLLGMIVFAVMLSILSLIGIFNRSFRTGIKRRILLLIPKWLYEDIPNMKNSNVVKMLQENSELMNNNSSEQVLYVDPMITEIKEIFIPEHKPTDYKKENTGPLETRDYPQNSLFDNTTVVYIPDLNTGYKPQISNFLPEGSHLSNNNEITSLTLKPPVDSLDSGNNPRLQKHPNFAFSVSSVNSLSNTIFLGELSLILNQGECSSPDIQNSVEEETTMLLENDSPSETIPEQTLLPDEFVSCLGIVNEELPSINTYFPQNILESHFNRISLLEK
# How it was run: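 DB cells preincubated with inhibitor 15 min at 37 °C, then stimulated 90 min with EC80 human IL-23; lysate phospho-STAT3 measured by MSD electrochemiluminescence. Signal normalized to IL-23-alone and buffer controls; IC50 and maximal % inhibition from 4-parameter logistic fit.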
smiles,measurement,setting,value
"CC(C)C[C@]1(C)NC(=O)[C@H](Cc2ccc3ccccc3c2)NC(=O)[C@H](Cc2ccc(OCCN)cc2)NC(=O)[C@@H]2CCC(=O)N[C@H](CCCCNC(=O)CC[C@@H](C(=O)N[C@@H](CCN)C(=O)N[C@@H](Cc3cccnc3)C(N)=O)NC1=O)C(=O)N[C@@H]([C@@H](C)O)C(=O)N[C@@H](C(C)C)C(=O)N[C@@H](Cc1c[nH]c3ccccc13)C(=O)N[C@@H](CCC(N)=O)C(=O)N2 [Compound 1, [{d}K](1c)(6c)^†TVWQE(6c)[Y(2-aminoethoxy)][2-Nal][2-Me-Leu]E(1c)[Dab][3-(3-Pyridyl)-Ala]-[NH2]]",SIF (% remaining 4 h),"[1]; 10 µM, pH 6.8, 4 h",0%
same,"remaining at 1 h, 10 µM","[1]; pig, pH 6.8, 1 h",23%
same,"remaining at 4 h, 10 µM","[1]; pig, SAR tables, % peptide remaining, pH 6.8, 4 h, read-out: SIF (% after 4 h)",0%
same,IC50,"[2]; SAR tables 2-1 to 2-7, read-out: IC50 (pSTAT3)",230 pM
same,Emax,"[2]; Table 3-2, maximal inhibitory response, read-out: hIL-23 (pSTAT3) antagonist % inhibition",102%
